Data set [1] concerns FPN1-deficient Flatiron (ffe/+) mice. Nature of the data set: 59Fe gut absorption in Flatiron mice. The class given is in vivo. Particulars: 1.5 mg/kg, oral gavage, after one and two hours. The protocol:
(§1) Temporal live cell imaging of labile iron levels in shDMT1 Caco-2 monolayers was performed after staining of Caco-2 monolayers with calcein green-AM (5 μM) in the apical and basolateral liquid for 30 minutes in pH=7.4 DMEM. […] Final volume administered was 1.5 mL/kg for each mouse, correcting for individual body weight. […] […] Radioactivity was quantified by gamma counting and calculated as the percentage of gavaged dose (±SEM). Experiments were performed with 4 genotyped-matched mice/day; preliminary analysis determined there were no gender effects on uptake of ^59Fe after intragastric gavage; mixed genders were used in the experiments shown.

Another data set concerns J774. The experiment in a line: WST-8 toxicity in J774 cells. Particulars: J774 macrophages. The class given is cell-based, mouse.
A short description of data set [2]: WST-8 toxicity in J774 cells. Format: cell-based, mouse. Particulars: mouse, wild type J774 cells; Wild Type J774, WST-8 assay after ≥24 hours of incubation. In general terms: Formazan colour is commonly taken as a measure of viable cells.
Experimental: (§2) Determination of small molecule-mediated toxicity in Caco-2, MEL, and/or J774 cells was performed according to manufacturer instructions using a WST-8 kit (Cayman Chemical 10010199) similar to previously reported (76) using a 1000× stock of the indicated small molecule in DMSO to give the indicated final concentration.
The subject of data set [3] is FPN1-deficient J774 macrophages. Nature of the data set: 55Fe release from FPN1-deficient J774 macrophages. Particulars: hepcidin-treated cells. Format: cell-based, mouse. The protocol:
To knockdown FPN1 levels in wild type J774 cells, the cells were incubated with […] mouse hepcidin (Peptides International PLP-3773-PI) for 1 hour in J774 Complete media similar to previously described (41) before ^55Fe was loaded into J774 cells and ^55Fe release was determined.
J774 cells were grown in 12-well plates to ˜80% confluency. The cells were then treated with vehicle or hepcidin in fresh J774 Complete media (1 mL) and incubated at 37° C. for 1 hour. After incubation, the media was aspirated, and then a ^55Fe2Tf (50 nM) solution in J774 Complete media (1 mL) containing vehicle or hepcidin was added. The cells were incubated at 37° C. for 10 minutes, and the media was removed. The cells were rinsed with PBS (×2), and then rinsed with J774 Complete media (1 mL) for 10 minutes at 37° C. […] At the indicated times, aliquots (<100 μL) of the media were removed, diluted in scintillation cocktail, and radioactivity was determined by liquid scintillation counting. […] The cell lysate was diluted in scintillation cocktail and intracellular ^55Fe levels were determined by liquid scintillation counting. The % ^55Fe release was determined by the ratio of extracellular ^55Fe to total (intracellular+ extracellular) ^55Fe at the indicated times.

The next data set has as its system wild type (+/+) mice. The experiment in a line: 59Fe gut absorption in wild type mice. Format: in vivo. Particulars: 1.5 mg/kg, after one hour. On the procedure: as §1
For another data set, the system named is shDMT1 Caco-2 monolayers. The experiment in a line: Iron-related protein and mRNA levels in shDMT1 Caco-2 monolayers. The class given is cell-based, Human. Particulars: hinokitiol up to 5 μM, 25 μM FeCl3, 4 hours. The protocol: The threshold cycle values were normalized to internal control actin using primers against Fpn1 (Origene HB210988) and Fth1 (Origene HP205786) using the Pfaff1 Method and were then normalized to shDMT1 levels in the absence of hinokitiol. Caco-2 monolayers, differentiated MEL cells, or J774 cells underwent treatment as described in rescue experiments before lysis with RIPA buffer (Thermo 89901) containing protease inhibitors (Thermo 88266). Protein concentrations were determined by a BCA kit (Thermo 23225) and diluted to 2 mg/mL in the same RIPA buffer. […] Blots were thoroughly rinsed with TBST and imaged after addition of Femto Chemluminescence solution according to manufacturer instructions (Thermo Fisher 34095). For results found in FIG. 19E, protein lysate was isolated after treatment with 500 nM FeCl3 as described below. For results found in FIG. 22A, Caco-2 monolayers were treated with 25 μM FeCl3 and 0, 0.5, 1, 3, 5, 10, 25, or 50 μM hinokitiol as described below. […] Experiments for the translational and transcriptional regulated changes in endogenous proteins upon addition of increasing hinokitiol concentrations (FIG. 5F-J, FIG. 21, and FIG. 22A-L) used 25 μM of non-radioactive FeCl3 and the indicated concentration of hinokitiol (from a 1000X stock in DMSO).

The target in the next data set is T1, ferritin (Homo sapiens, UniProt P02792+P02794).
T1 construct: endogenous in cells; host or cells: wild type Caco-2 monolayers (human, ATCC HTB-37); immunoprecipitated with anti-FTL1 on Protein G PLUS-Agarose beads
The experiment in a line: Removal of 55Fe from ferritin. Format: biochemical. Particulars: buffered solution, 2.5 ng ferritin/mL. The protocol:
The immunoprecipitated ferritin was diluted to 2.5 ng ferritin/mL (determined by ELISA as described below) in 50 mM MES/Tris buffer at pH=7.0, and increasing concentrations of hinokitiol were added (from 1000X stock in DMSO) to give the final indicated concentrations. The suspension was mixed at room temperature for 2 hours.

Data set [4] can be described thus: Single-dose in vivo pharmacokinetics of hinokitiol in mice. Particulars: 100 mg/kg. The protocol:
FIGS. 29A-29B show single-dose in vivo pharmacokinetics of hinokitiol in mice. Mice were mixed C57BL/6 and 129/Sv background (2-3 mo. old) were administered various concentrations of hinokitiol (30 or 100 mg Hino/kg body weight) by two different routes (A) intraperitoneal injection and (B) oral gavage. Plasma samples were collected at various timepoints (5-360 minutes) for drug measurement by HPLC.
In addition to evaluating the pharmacodynamics (effect) of hinokitiol in Al, the pharmacokinetics of hinokitiol were characterized to guide the optimal dose scheme for treatment.

Data set [5] is described as follows: WST-8 toxicity in Caco-2 cells. Particulars: human.
Experimental: as §2

The term EC90 denotes the concentration needed for an effect of 90%. High values mean weaker potency, low ones greater potency.

T1 sequence (P02792 2-175 limits assumed): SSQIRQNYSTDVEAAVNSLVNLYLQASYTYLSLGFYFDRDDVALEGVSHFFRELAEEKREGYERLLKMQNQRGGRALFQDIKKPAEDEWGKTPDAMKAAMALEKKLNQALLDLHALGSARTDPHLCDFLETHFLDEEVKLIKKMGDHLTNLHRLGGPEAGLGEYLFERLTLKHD
T1 sequence (P02794 whole entry): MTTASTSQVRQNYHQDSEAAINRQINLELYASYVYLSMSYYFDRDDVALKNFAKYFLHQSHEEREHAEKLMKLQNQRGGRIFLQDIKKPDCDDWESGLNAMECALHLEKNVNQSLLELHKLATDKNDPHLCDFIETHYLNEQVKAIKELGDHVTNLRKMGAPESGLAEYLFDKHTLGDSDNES

Consider `CC(C)c1cccc(=O)c(O)c1` [hinokitiol], for which, in data set [1], the 59Fe absorption entry is recorded as “increased ^59Fe absorption”. For the same compound, the observable toxicity entry in the data set on J774 is recorded as “without observable toxicity”. The EC90 in [2] was greater than 100 µM. In addition, the iron release entry in [3] is “time- and dose-dependently restored iron release”. The “rate of iron absorption” value with wild type (+/+) mice was “statistically significant increase”. Moreover, in the data set on shDMT1 Caco-2 monolayers, the “Fpn1 mRNA and protein levels” value is on record as “decreased”; the “Hif1α and Hif2α levels” value was “similarly decreased”; the IRP2 protein levels result is “decreased”; the “TfR1 (3′-IRE) protein levels” value is given as “decreased”. Also, the “ferritin subunits (5′-IREs) protein levels” value with shDMT1 Caco-2 monolayers was “increased”. Further, the “excess of hinokitiol relative to ferritin needed to remove iron” value on ferritin is given as > 1,000,000 fold. For the same compound, the half-life entry in data set [4] is on record as “increased half-life”. Moreover, the EC90 in data set [5] was greater than 100 µM.
